Measured values: patent US5908868A, “Retinol derivatives useful for enhancing immune response” (priority 1995, dated 1999)
“Also recorded” adds a separate entry of the source.

What was measured:
CD4+ T lymphocytes = experiment: Proliferation of anti-CD3 activated CD4+ T lymphocytes; type: cell-based, BALB/c mouse
Excerpt: (§1) Growth curves of lymph node T cells depleted of antigen-presenting cells (FIG. 17A) with and without 10^-6 M retinol at 2×10^5 and 5×10^4 cells/well. (FIG. 17B) Dose-responses elicited by different retinoids in cultures of lymph node T cells depleted of antigen-presenting cells. Also shown are the growth curves of CD4^+ (FIG. 17C) and CD8^+ T lymphocytes (FIG. 17D) in the presence of either retinol, 14HRR, human serum or in their absence.
(§2) T lymphocytes, purified as described, 5×10^4 well, were activated with immobilized anti-CD3 antibody in ITLB medium. The indicated amounts of retinoids or human serum were added at initiation of cultures. […] 14HRR was added every 12 hours. DNA synthesis was measured by a 4 hour pulse with tritiated thymidine. SDs were ≤17%.
(§3) The cell suspension in a volume of 2 ml was applied to a nylon wool column (40) (0.6 g of washed nylon fibers in the barrel of a 10 ml syringe) and incubated at 37° C. for 40 min. The non-adherent cells were recovered by washing with warm serum-free medium at a flow rate of 1 ml/min. […] The success of the enrichment procedures was monitored cytofluorimetrically using FITC-conjugated anti-CD8 and PE-conjugated anti-CD4. […]

B lymphocytes = details: cited from earlier work
CD8+ T lymphocytes = experiment: Proliferation of anti-CD3 plus IL-2 activated CD8+ T lymphocytes; type: cell-based, BALB/c mouse
Excerpt: as §1, §2, §3

T cells = experiment: T cell activation/proliferation; type: cell-based, murine; details: for substitution for retinol in T cell activation: with mitogen/anti-CD3; for T cell activation on its own: without mitogen
Description: They were seeded into 96-well flat-bottom plates at varying cellular densities in a final volume of 100 μl. In control experiments, cells were cultured in medium containing 10% FCS or 3% human serum and 5×10^-5 M 2 ME. […] Cultures were carried out in duplicate. Plates were incubated at 37° C. in a humidified 5% CO2 atmosphere. Cellular proliferation was determined by [^3 H] thymidine uptake (0.5 uCi/well; New England Nuclear, Boston, Mass.) after the incubation times indicated for each experiment with a 4 hour labeling pulse. Cells were harvested onto glass filter and [^3 H]TdR incorporation was determined by liquid scintillation counting. The data presented are the means of duplicate or six replicate cultures. The restriction to duplicate measurements was necessary to conserve scarce 14HRR. […] Each experiment was repeated at least twice.

[1] = previous analyses with B lymphocytes (33)

Row | Compound | response to activating signal (CD4+ T lymphocytes) | potency relative to retinol in preventing necrotic cell death (B lymphocytes; on a concentration basis, previous studies) | concentration at which activity was demonstrated (B lymphocytes; [1]) | difference in active concentration, 14HRR versus retinal (B lymphocytes; [1]) | support of B cell growth/proliferation (B lymphocytes; previous studies) | response to activating signal (CD8+ T lymphocytes) | activity relative to all-trans retinol in T cells (T cells) | substitution for retinol in T cell activation (T cells) | substitution for retinol in T cell activation (T cells; listed as 14-hydroxy-retro-retinol) | T cell activation on its own (T cells) | activation in FCS-containing medium in absence of APC (T cells; additional retinol supplied, FCS medium) | optimally effective dose (T cells; given once in a 3-day culture) | optimally effective dose (T cells; provided at 12 hour intervals)
1 | CC(C=CC=C(C)C(O)CO)=CC=C1C(C)=CCCC1(C)C (centres unmarked) [14HRR, 14-hydroxy-4,14-retro-retinol] | responded to the activating signal | 20-40 times more potent | 5 µM | 40 fold | capable of supporting the proliferation of B cells in the absence of an external supply of retinol | responded to the activating signal | as active | capable of supporting T cell activation and proliferation | effectively supports T cell activation in conjunction with a mitogen in lieu of retinol; also recorded: capable of supporting activation and sustaining proliferation of T cells | unable to activate T cells on their own | – | – | –
2 | CC1=C(/C=C/C(C)=C/C=C/C(C)=C/CO)C(C)(C)CCC1 [retinol, all-trans retinol] | responded to the activating signal | – | – | – | necessary for the growth of B lymphocytes | responded to the activating signal | – | – | – | unable to activate T cells on their own | no activation | 2 µM | 0.2 µM
